Tests used:
[1] = Potentiation of amphotericin-induced cytotoxicity against human DU-145 cells over expressing CYP1B1 assessed as reversal of CYP1B1 mediated drug resistance at 1 uM after 48 hrs by MTT assay (Rvb = 43.25 +/- 1.7 nM)
[2] = Potentiation of amphotericin-induced cytotoxicity against human DU-145 cells over expressing CYP1B1 assessed as reversal of CYP1B1 mediated drug resistance at 5 uM after 48 hrs by MTT assay (Rvb = 43.25 +/- 1.7 nM)

Row | Structure (SMILES) | IC50 [1] [nM] | IC50 [2] [nM]
1 | COc1ccc(OC)c2c1c(OC)cc1c(=O)cc(-c3ccc(-c4cn(CCCCCOc5cccc6c5C(=O)N(C5CCC(=O)NC5=O)C6=O)nn4)cc3)oc12 (centres undefined) | 28 | 
2 | COc1ccc(OC)c2c1c(OC)cc1c(=O)cc(-c3ccc(-c4cn(CCCCCCCCOc5cccc6c5C(=O)N(C5CCC(=O)NC5=O)C6=O)nn4)cc3)oc12 (centres undefined) |  | 37
3 | COc1ccc(OC)c2c1c(OC)cc1c(=O)cc(-c3ccc(-c4cn(CCOc5cccc6c5C(=O)N(C5CCC(=O)NC5=O)C6=O)nn4)cc3)oc12 (centres undefined) |  | 24
4 | COc1ccc(OC)c2c1c(OC)cc1c(=O)cc(-c3ccc(-c4cn(CCCCCCOc5cccc6c5C(=O)N(C5CCC(=O)NC5=O)C6=O)nn4)cc3)oc12 (centres undefined) |  | 7

— BindingDB's records for doi:10.1016/j.ejmech.2019.112028 (Hunan Agricultural University, 2020)
